The values below are quoted from earlier work in US12202853B2, “Epoxide polyene amphoteric macrolide and process for purifying natamycin” (DSM IP ASSETS B.V., priority 2018, dated 2025).

Like-named read-outs stand apart in the source and are kept apart here.

As to Natamycin, the “solubility of natamycin in water” value (neutral pH) is reported as “around 40 mg/L” and the “solubility of natamycin in water” value (neutral pH values, also printed as 40 ppm) is on record as “around 0.04 g/L”.
